Our source for the IC50 and inhibition values is patent publication US11186564B2, “Dual NAV1.2/5HT2a inhibitors for treating CNS disorders” (Sunovion Pharmaceuticals Inc., priority 2016, dated 2021).

Experiment [1] addresses human sodium channel NaV1.2 (Homo sapiens, UniProt Q99250). Put plainly: NaV1.2 inhibition, automated patch-clamp (Q-Patch HTX), slow inactivated state (state C). In kind it is cell-based. As to conditions: hNaV1.2 CHO cells, slow inactivated state; for IC50: read-out: NaV1.2 IC50; for inhibition at 1 µM: 1 μM compound, read-out: NaV1.2 (% inh), 1 μM; for inhibition at 10 µM: 10 μM compound, read-out: NaV1.2 (% inh), 10 μM. The gist of the method:
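IC50 comes from a least-squares fit of percent inhibition, relative to vehicle, of current in the slow-inactivated state. That state is reached by a 10 s prepulse to −50 mV, then 15 ms at −90 mV, then a 5 ms test pulse to 0 mV. Human NaV1.2 in stable CHO K-1 cells, held at −100 mV, automated patch clamp.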

Experiment [2] deals with T1, recombinant human serotonin receptor 5-HT2A (Homo sapiens, UniProt P28223).
T1 construct: expressed in transfected cells; method B: loaded with Ca2+ dye
Put plainly: 5-HT2A antagonist Ca2+ assay in CHO-K1 cells (method A aequorin luminescence / method B FLIPR fluorescence). As to conditions: antagonist mode vs EC80 of reference agonist, method A or B, read-out: 5HT2A IC50. In kind it is cell-based. The gist of the method:
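IC50 was obtained by nonlinear regression of percent inhibition of the EC80 agonist Ca2+ response in CHO-K1 cells stably expressing human 5-HT2A. The readout was aequorin luminescence with agonist injected 15 min after compound (A), or Ca2+-dye fluorescence on FLIPR with serotonin as agonist (B).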

T1 sequence (P28223 whole entry): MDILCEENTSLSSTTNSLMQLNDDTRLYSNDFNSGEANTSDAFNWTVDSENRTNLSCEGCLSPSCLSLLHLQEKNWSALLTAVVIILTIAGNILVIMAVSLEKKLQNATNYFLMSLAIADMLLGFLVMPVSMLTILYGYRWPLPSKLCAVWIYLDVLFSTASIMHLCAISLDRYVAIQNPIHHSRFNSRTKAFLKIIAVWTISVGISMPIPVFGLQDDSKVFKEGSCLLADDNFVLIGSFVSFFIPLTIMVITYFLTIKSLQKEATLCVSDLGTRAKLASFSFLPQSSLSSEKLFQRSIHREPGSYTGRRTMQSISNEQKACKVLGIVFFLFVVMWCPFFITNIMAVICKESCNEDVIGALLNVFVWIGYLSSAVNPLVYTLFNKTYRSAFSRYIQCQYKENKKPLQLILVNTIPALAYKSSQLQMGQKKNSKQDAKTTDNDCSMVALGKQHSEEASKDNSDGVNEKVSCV
human sodium channel NaV1.2, sequence (Q99250 whole entry): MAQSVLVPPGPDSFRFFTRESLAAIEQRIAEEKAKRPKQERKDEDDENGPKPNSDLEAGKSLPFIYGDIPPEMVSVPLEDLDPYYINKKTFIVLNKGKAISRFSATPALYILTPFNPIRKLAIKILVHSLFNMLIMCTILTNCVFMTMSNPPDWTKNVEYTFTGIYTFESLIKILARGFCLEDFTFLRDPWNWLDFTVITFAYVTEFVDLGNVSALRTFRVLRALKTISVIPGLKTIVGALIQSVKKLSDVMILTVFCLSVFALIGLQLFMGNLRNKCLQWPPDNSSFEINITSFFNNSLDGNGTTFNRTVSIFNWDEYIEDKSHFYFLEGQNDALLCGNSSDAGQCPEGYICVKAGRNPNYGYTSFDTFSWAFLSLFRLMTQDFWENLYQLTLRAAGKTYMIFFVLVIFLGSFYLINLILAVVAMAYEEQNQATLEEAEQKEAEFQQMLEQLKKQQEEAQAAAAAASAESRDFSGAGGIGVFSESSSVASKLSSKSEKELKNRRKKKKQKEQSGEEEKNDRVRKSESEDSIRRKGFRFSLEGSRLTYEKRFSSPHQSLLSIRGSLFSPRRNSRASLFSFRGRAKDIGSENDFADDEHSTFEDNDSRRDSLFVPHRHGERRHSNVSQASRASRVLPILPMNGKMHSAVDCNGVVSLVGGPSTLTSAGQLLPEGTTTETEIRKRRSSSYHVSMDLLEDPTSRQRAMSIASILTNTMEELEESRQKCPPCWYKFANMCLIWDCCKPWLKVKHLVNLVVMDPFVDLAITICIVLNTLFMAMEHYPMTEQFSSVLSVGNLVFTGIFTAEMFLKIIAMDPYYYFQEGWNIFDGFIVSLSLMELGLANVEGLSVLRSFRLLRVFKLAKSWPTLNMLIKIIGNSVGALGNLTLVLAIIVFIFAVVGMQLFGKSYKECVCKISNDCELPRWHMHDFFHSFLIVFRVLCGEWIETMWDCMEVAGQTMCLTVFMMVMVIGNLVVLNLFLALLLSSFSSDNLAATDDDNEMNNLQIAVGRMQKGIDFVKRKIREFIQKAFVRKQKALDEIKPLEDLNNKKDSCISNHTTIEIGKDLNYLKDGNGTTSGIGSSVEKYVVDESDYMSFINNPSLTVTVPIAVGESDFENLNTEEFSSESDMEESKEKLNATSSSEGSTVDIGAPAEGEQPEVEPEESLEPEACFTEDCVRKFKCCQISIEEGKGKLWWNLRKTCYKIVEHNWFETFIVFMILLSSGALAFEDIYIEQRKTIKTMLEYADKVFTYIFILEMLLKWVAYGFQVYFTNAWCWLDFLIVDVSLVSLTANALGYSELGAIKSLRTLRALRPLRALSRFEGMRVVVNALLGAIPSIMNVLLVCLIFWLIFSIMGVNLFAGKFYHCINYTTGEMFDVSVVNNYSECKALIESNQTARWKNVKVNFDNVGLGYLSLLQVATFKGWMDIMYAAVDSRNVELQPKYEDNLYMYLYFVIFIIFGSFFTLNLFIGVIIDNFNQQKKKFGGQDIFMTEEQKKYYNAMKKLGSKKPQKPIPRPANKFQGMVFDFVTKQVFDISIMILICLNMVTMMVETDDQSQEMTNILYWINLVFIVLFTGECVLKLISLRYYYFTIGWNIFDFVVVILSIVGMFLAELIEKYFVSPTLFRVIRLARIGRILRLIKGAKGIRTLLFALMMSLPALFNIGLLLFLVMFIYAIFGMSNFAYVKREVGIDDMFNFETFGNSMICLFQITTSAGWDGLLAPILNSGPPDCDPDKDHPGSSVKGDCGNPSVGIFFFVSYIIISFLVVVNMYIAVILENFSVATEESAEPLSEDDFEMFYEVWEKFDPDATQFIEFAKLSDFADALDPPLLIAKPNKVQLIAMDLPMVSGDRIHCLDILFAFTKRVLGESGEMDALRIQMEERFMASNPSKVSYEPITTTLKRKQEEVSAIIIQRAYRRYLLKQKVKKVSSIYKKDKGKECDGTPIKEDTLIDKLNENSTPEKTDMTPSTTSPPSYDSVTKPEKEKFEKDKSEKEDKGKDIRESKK

`CC(=O)Nc1ccc(OCC(O)CN2CCN(c3ccc(C)c(Cl)c3)CC2)cc1` (centres unmarked) [Example 90, N-(4-(3-(4-(3-chloro-4-methylphenyl)piperazin-1-yl)-2-hydroxypropoxy)phenyl)acetamide]: the IC50 is 59500 nM in experiment [1] and 10 nM in experiment [2].

For the compound `COc1ccccc1OC1CCN(CC2CCc3ccccc32)CC1(C)C` (centres unmarked) [Example 103, 1-((2,3-dihydro-1H-inden-1-yl)methyl)-4-(2-methoxyphenoxy)-3,3-dimethylpiperidine], the figures for the IC50 in experiment [1] and in experiment [2] were 3130 nM and 220 nM, respectively.

In the case of `c1ccc(OC2COC3(C2)CN(CC2CCc4ccccc42)C3)cc1` (single isomer, unassigned) [Compound 362, 2-((2,3-dihydro-1H-inden-1-yl)methyl)-7-phenoxy-5-oxa-2-azaspiro[3.4]octane], the IC50 in experiment [1] was determined as 6370 nM; in experiment [2], 500 nM.

Regarding `O[C@H](COC1CCCCC1)CN1CC2(CC(c3ccccc3)CO2)C1` (stereo partly drawn) [Example 360, (2S)-1-(cyclohexyloxy)-3-(7-phenyl-5-oxa-2-azaspiro[3.4]octan-2-yl)propan-2-ol], the inhibition at 1 µM in experiment [1] was found to be 4%. The IC50 in experiment [2] worked out at 130 nM.

Take `c1ccc(O[C@H]2COC3(CCN(C[C@@H]4CCc5ccccc54)CC3)C2)cc1` (single isomer, unassigned) [Compound 382]: the figures for the IC50 in experiment [1] and in experiment [2] were 1210 nM and 60 nM, respectively.

Turning to `Fc1ccc(N2CCC3(CCN(CC4Cc5cccnc5C4)C3)C2)cc1` (centres unmarked) [Example 339, 2-((6,7-dihydro-5H-cyclopenta[b]pyridin-6-yl)methyl)-7-(4-fluorophenyl)-2,7-diazaspiro[4.4]nonane], the IC50 in experiment [1] amounted to 2270 nM; in experiment [2], 870 nM.

With `c1ccc2c(c1)CCC1(CCN(CCC3CCc4ccccc43)CC1)O2` (centres unmarked) [Example 418, 1′-(2-(2,3-dihydro-1H-inden-1-yl)ethyl)spiro[chromane-2,4′-piperidine]], the results for the IC50 in experiment [1] and in experiment [2] were 1130 nM and 160 nM, respectively.

For the compound `c1ccc(CC2CN(CC3CCc4ccccc43)CCO2)cc1` (centres unmarked) [Example 251, 2-benzyl-4-((2,3-dihydro-1H-inden-1-yl)methyl)morpholine], the inhibition at 1 µM in experiment [1] worked out at 23%. Besides, in experiment [2], the IC50 stood at 370 nM.

Consider `COc1ccc2c(c1)C(CN1CC[C@H](Oc3ccccc3OC)C[C@@H]1C)CC2` (stereo partly drawn) [Example 104, (2S,4S)-1-((6-methoxy-2,3-dihydro-1H-inden-1-yl)methyl)-4-(2-methoxyphenoxy)-2-methylpiperidine], for which the inhibition at 1 µM in experiment [1] amounted to 46%. Also, the IC50 in experiment [2] was determined as 260 nM.

Take `c1ccc2c(c1)CCC1(CCN(CC3COCc4ccccc43)CC1)O2` (centres unmarked) [Example 414, 1′-(isochroman-4-ylmethyl)spiro[chromane-2,4′-piperidine]]: the inhibition at 1 µM in experiment [1] worked out at 29%. Further, the IC50 in experiment [2] is 260 nM.

With `c1ccc(OC2CCN(CCO[C@@H]3CCc4ccccc43)CC2)cc1` [Example 218, (R)-1-(2-((2,3-dihydro-1H-inden-1-yl)oxy)ethyl)-4-phenoxypiperidine], in experiment [1], the inhibition at 10 µM turned out to be 72%. For the same compound, the IC50 in experiment [2] was 440 nM.

In the case of `COc1ccccc1OC1COC2(C1)CN(CC1CCc3ccccc31)C2` (centres unmarked) [Example 363, 2-((2,3-dihydro-1H-inden-1-yl)methyl)-7-(2-methoxyphenoxy)-5-oxa-2-azaspiro[3.4]octane], in experiment [1], the inhibition at 1 µM is 48%. Further, the IC50 in experiment [2] was found to be 620 nM.

Consider `Fc1ccc(OC2CCN(CCC3COc4ccccc43)CC2)cc1` (centres unmarked) [Example 176, 1-(2-(2,3-dihydrobenzofuran-3-yl)ethyl)-4-(4-fluorophenoxy)piperidine], for which the inhibition at 1 µM in experiment [1] came to 41%. Moreover, the IC50 in experiment [2] is 80 nM.

As for `Cc1ccccc1OC1CCN(CC2Cc3cccnc3C2)CC1` (centres unmarked) [Example 137, 6-((4-(o-tolyloxy)piperidin-1-yl)methyl)-6,7-dihydro-5H-cyclopenta[b] pyridine], the inhibition at 1 µM in experiment [1] came to 44%. In experiment [2], the IC50 came to 40 nM.

`OC(COC1CCCCC1)CN1C[C@H]2C[C@@H]1CN(Cc1ccccc1)C2` (stereo partly drawn) [Example 318, 1-((1S,5R)-3-benzyl-3,6-diazabicyclo[3.2.1]octan-6-yl)-3-(cyclohexyloxy)propan-2-ol]: the inhibition at 10 µM in experiment [1] came out at 48%. The IC50 in experiment [2] is more than 5300 nM.

For the compound `Fc1ccc(O[C@@H]2CCN(CC3COCc4ccccc43)C2)cc1` (stereo partly drawn) [Example 11, (3R)-3-(4-fluorophenoxy)-1-(isochroman-4-ylmethyl)pyrrolidine], the inhibition at 1 µM in experiment [1] came out at 29%. Moreover, in experiment [2], the 50% inhibitory concentration (IC50) was found to be 590 nM.

As for `Fc1ccc(OC2CCN(CC3Cc4ccccc4C3)CC2)cc1` [Example 154, 1-((2,3-dihydro-1H-inden-2-yl)methyl)-4-(4-fluorophenoxy)piperidine], the inhibition at 1 µM in experiment [1] is 35%. The half-maximal inhibitory concentration (IC50) in experiment [2] worked out at 170 nM.

Regarding `Fc1ccc(OC2COC3(C2)CN(CC2Cc4cccnc4C2)C3)cc1` (centres unmarked) [Example 370, 2-((6,7-dihydro-5H-cyclopenta[b]pyridin-6-yl)methyl)-7-(4-fluorophenoxy)-5-oxa-2-azaspiro[3.4]octane], the figures for the IC50 in experiment [1] and in experiment [2] were 2010 nM and 100 nM, respectively.

For the compound `O[C@@H](COC1CCCCC1)CN1CCC2(CCc3ccccc3O2)CC1` [Example 438, (R)-1-(cyclohexyloxy)-3-(spiro[chromane-2,4′-piperidin]-1′-yl)propan-2-ol], the figures for the IC50 in experiment [1] and in experiment [2] were 1310 nM and 150 nM, respectively.

As for `O=C1CCC(c2ccc(F)cc2)=NN1CN1CCN(c2cccc(Cl)c2)CC1` [Example 62, 2-((4-(3-chlorophenyl)piperazin-1-yl)methyl)-6-(4-fluorophenyl)-4,5-dihydropyridazin-3(2H)-one], the IC50 came to 5270 nM in experiment [1] and 50 nM in experiment [2].

As for `Cc1cccc(N2CCN(CC(O)COC3COc4ccccc43)CC2)c1C` (centres unmarked) [Example 80, 1-((2,3-dihydrobenzofuran-3-yl)oxy)-3-(4-(2,3-dimethylphenyl)piperazin-1-yl)propan-2-ol], the IC50 worked out at 170 nM in experiment [1] and 60 nM in experiment [2].

With `COc1ccc2c(c1)C(CN1CCC(Oc3cccc(C)n3)CC1)CC2` (centres unmarked) [Example 124, 2-((1-((6-methoxy-2,3-dihydro-1H-inden-1-yl)methyl)piperidin-4-yl)oxy)-6-methylpyridine], in experiment [1], the inhibition at 1 µM was found to be 34%. Also, the IC50 in experiment [2] amounted to 120 nM.

`Cc1ccc(N2CCN(C[C@H](O)COC3CCCCC3)CC2)cc1` [Example 77, (S)-1-(cyclohexyloxy)-3-(4-(p-tolyl)piperazin-1-yl)propan-2-ol]: the IC50 in experiment [1] is 9020 nM; in experiment [2], 210 nM.

For `OC(COC1CCCCC1)CN1CCN(c2ccccc2)CC1` (centres unmarked) [Example 74, 1-(cyclohexyloxy)-3-(4-phenylpiperazin-1-yl)propan-2-ol], the IC50 in experiment [1] came out at 50800 nM; in experiment [2], 60 nM.

As to `COc1ccccc1CCN1CCC2(CCc3ccccc3O2)CC1` [Example 428, 1′-(2-methoxyphenethyl) spiro[chromane-2,4′-piperidine]], the inhibition at 10 µM in experiment [1] came out at 86%. Besides, the IC50 in experiment [2] worked out at 190 nM.

On to `COc1ccc2c(c1)C(CN1CCC(OCc3ccc(F)cc3)CC1)CC2` (centres unmarked) [Example 247, 4-((4-fluorobenzyl)oxy)-1-((6-methoxy-2,3-dihydro-1H-inden-1-yl)methyl)piperidine], for which the concentration for half-maximal inhibition (IC50) in experiment [1] stood at 270 nM; in experiment [2], 100 nM.

On to `c1cnc(OC2CCN(CC3CCc4ccccc43)CC2)nc1` (centres unmarked) [Example 125, 2-((1-((2,3-dihydro-1H-inden-1-yl)methyl)piperidin-4-yl)oxy) pyrimidine], for which the inhibition at 1 µM in experiment [1] is -3%. In experiment [2], the IC50 is 80 nM.

As to `O[C@@H](CCN1CCC(Oc2ccccc2)CC1)c1ccccc1` [Example 228, (S)-3-(4-phenoxypiperidin-1-yl)-1-phenylpropan-1-ol], the inhibition at 10 µM in experiment [1] amounted to 52%. Moreover, in experiment [2], the IC50 worked out at 140 nM.

Regarding `Fc1ccc(OC2CCN(CC3CCc4ccccc43)CC2)cc1` (centres unmarked) [Example 112, 1-((2,3-dihydro-1H-inden-1-yl)methyl)-4-(4-fluorophenoxy)piperidine], the IC50 in experiment [1] was 1440 nM; in experiment [2] it was 4 nM.

As to `O=C1c2ccccc2CCN1CCN1CC[C@@H](Oc2ccc(F)cc2)C1` [Example 25, (R)-2-(2-(3-(4-fluorophenoxy)pyrrolidin-1-yl)ethyl)-3,4-dihydroisoquinolin-1(2H)-one], the inhibition at 10 µM in experiment [1] was determined as 83%. Further, the IC50 in experiment [2] was 170 nM.

For `OC(COC1CCCCC1)CN1CC[C@H]2C[C@@H]1CN2c1ccccc1` (stereo partly drawn) [Example 325, 1-(cyclohexyloxy)-3-((1R,5S)-6-phenyl-2,6-diazabicyclo[3.2.1]octan-2-yl)propan-2-ol], the IC50 in experiment [1] turned out to be 220 nM; in experiment [2] it was 250 nM.

As for `c1ccc2c(c1)CCC2CN1CCC2(CCc3ccncc3O2)CC1` (centres unmarked) [Example 405, 1-((2,3-dihydro-1H-inden-1-yl)methyl)-3′,4′-dihydrospiro[piperidine-4,2′-pyrano[2,3-c]pyridine]], the inhibition at 1 µM in experiment [1] was 18%. In experiment [2], the IC50 was found to be 180 nM.

`O=C1c2ccccc2CCN1CCN1CCC(Oc2cccnc2)CC1` [Example 192, 2-(2-(4-(pyridin-3-yloxy)piperidin-1-yl)ethyl)-3,4-dihydroisoquinolin-1(2H)-one]: the inhibition at 10 µM in experiment [1] came to 15%. In addition, the IC50 in experiment [2] was determined as 2840 nM.

For the compound `c1ccc(O[C@H]2COC3(C2)CN(C[C@@H]2CCc4ccccc42)C3)cc1` (single isomer, unassigned) [Compound 367], the IC50 in experiment [1] worked out at 390 nM; in experiment [2] it was 280 nM.
